Results as given in PubChem BioAssay (NCI).
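Following 48 hours of exposure in 96-well plates, responses at five concentrations were used to interpolate endpoints linearly. The concentration for 50% growth inhibition is given as GI50. TGI denotes the concentration required for complete inhibition of growth.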

Tests used:
Assay in all cases: NCI anticancer screen, dose series, 48 h
[1] = system: LXFL 529 NSCLC
[2] = system: M19-MEL melanoma
[3] = system: DMS 273 small cell lung
[4] = system: SNB-78 CNS
[5] = system: K-562 leukemia
[6] = system: OVCAR-5 ovarian
[7] = system: 786-0 renal
[8] = system: HT29 colon
[9] = system: OVCAR-8 ovarian
[10] = system: SF-268 CNS
[11] = system: KM20L2 colon
[12] = system: DLD-1 colon
[13] = system: DMS 114 small cell lung
[14] = system: MDA-MB-231 breast

Row | Structure (SMILES) | TGI [1] [µM] | TGI [2] [µM] | TGI [3] [µM] | TGI [4] [µM] | TGI [5] [µM] | TGI [6] [µM] | TGI [7] [µM] | TGI [8] [µM] | TGI [9] [µM] | TGI [10] [µM] | TGI [11] [µM] | TGI [12] [µM] | TGI [13] [µM] | TGI [14] [µM] | GI50 [6] [µM]
1 | COC(=O)C1=C(C(=O)OC)C2C(C)=CC(C)=CN2C(C#N)=C(SC)S1 (stereo unspecified) | 37.6 | 33.8 | > 100 | > 100 | 55.3 | 84.7 | 73.2 | 44.6 | 65.9 | 56.8 | 86.7 | 49.2 | 54.7 |  | 
2 | Cc1cccc2c(=O)c3c(O)cc(O)cc3[nH]c12 |  |  |  |  | > 10 | > 10 | > 10 | > 10 | > 10 | > 10 |  |  |  | > 10 | 
3 | COc1ccc2oc(=O)cc(C)c2c1 |  |  |  |  | > 100 | > 100 | > 100 | > 100 | > 100 | > 100 |  |  |  | > 100 | 
4 | c1ccc(-c2cs[s+]c2)cc1 |  |  |  |  | > 100 | > 100 | > 100 | > 100 | > 100 | > 100 |  |  |  | > 100 | 
5 | COc1cccc(Nc2nc(-c3cccs3)nc3ccc(Br)cc23)c1 |  |  |  |  | > 100 | > 100 | > 100 | > 100 | > 100 | > 100 |  |  |  | > 100 | 
6 | Cc1ccc2cc3c(ccc4ccccc43)c3c2c1CC3 |  |  |  |  | > 100 | > 100 | > 100 | > 100 | > 100 | > 100 |  |  |  | > 100 | > 100
7 | CCOC(=O)c1cc(C2CCN(CC(C)CC)C2=S)c(-c2cc(C)no2)[nH]1 (stereo unspecified) |  |  |  |  | > 100 | > 100 | > 100 | > 100 | > 100 | > 100 |  |  |  | > 100 | 
8 | COP(=O)(OC)C(=NCc1ccccc1)NNc1ccc([N+](=O)[O-])cc1 | > 100 | > 100 | > 100 |  | > 100 | > 100 | > 100 | > 100 | > 100 | 84.9 | > 100 | > 100 | 76 |  | 
9 | CC(=O)CCC(=O)C(=[N+]=[N-])S(=O)(=O)c1ccccc1 |  |  |  |  | > 100 | > 100 | > 100 | > 100 | > 100 | > 100 |  |  |  | > 100 | 
10 | C/C(=N\Nc1ccccc1Br)c1cccc(/C(C)=N/Nc2ccccc2Br)n1 |  |  |  |  | > 100 | > 100 | > 100 | > 100 | > 100 | > 100 |  |  |  | > 100 | 
11 | CCOP(=O)(OCC)/C(C#N)=C/c1ccc(-c2ccc(F)cc2F)o1 |  |  |  |  | 38.1 | 31.7 | 27.4 | 33.1 | 33.2 | 44.3 |  |  |  | 36.6 | 
12 | O=c1c2c(c1=O)C1(SCCCS1)c1cc(Cl)ccc1O2 |  |  |  |  | > 100 | > 100 | > 100 | > 100 | > 100 | > 100 |  |  |  | > 100 | 
